Assay results taken from paper PMC4762250, “Novel cis-selective and non-epimerisable C3 hydroxy azapodophyllotoxins targeting microtubules in cancer cells” (European Journal of Medicinal Chemistry, 2016).
Read-outs that look alike come from different tables or passages of the source.

Key:
[1] = test system: microtubules in MCF-7 cells; experiment: Microtubule repolymerisation assay, second variation (no pre-treatment); assay type: cell-based, human; conditions: 30 min on ice, then rewarmed 37 °C 30 min in presence of 250 nM compound
Experimental: (§1) Cold depolymerisation of the tubulin cytoskeleton in vitro, including in MCF-7 cells, can be achieved by relatively short incubations at 4 °C [27], [28], [29]. To test the ability of the compounds to impair microtubule polymerisation, following depolymerisation, two variations of a tubulin re-polymerisation assay were performed. In the first, MCF-7 cells were pre-treated for 6 h with 250 nM of the compounds before being incubated on ice for 30 min then rewarmed to 37 °C for a further 30 min. In the second variation, cells were first incubated on ice then rewarmed to 37 °C in the presence of the compounds (250 nM, 30 min total treatment time). Samples of cells were fixed post-cold depolymerisation and post-warm repolymerisation. In both variations, immunofluorescence for α-tubulin was performed and cells were imaged by confocal microscopy (Fig. 6 and 7). In control and treated cells, incubation on ice for 30 min led to total loss of filamentous tubulin and the protein was diffusely scattered throughout the cytoplasm. […] Upon increasing the temperature to 37 °C for 30 min there was clear repolymerisation of the microtubule network.
Following cell seeding (42 h), the plates were placed on ice for 30 min to cold-depolymerise the tubulin cytoskeleton. Control cold-depolymerised coverslips were then immediately prepared for tubulin immunofluorescence and the remaining coverslips were rewarmed and treated with 250 nM of podophyllotoxin, compound 8e, 8b or 0.01% DMSO for 30 min (37 °C, 5% CO2). Together with the controls these were then subjected to tubulin immunofluorescence.
The media was aspirated and the cells were washed once in ice-cold PBS before being fixed in 100% methanol at −20 °C for 10 min. The cells were then washed thrice in PBS and stored overnight at 4 °C. […]
(§2) Confocal fluorescence microscopy analysis was conducted on a Leica SP5 inverted confocal laser scanning microscope. […] Images were recorded using the sequential scanning mode to prevent fluorescence channel crosstalk/bleed-through. […]

[2] = test system: microtubules in MCF-7 cells; experiment: Microtubule repolymerisation assay, first variation (6 h pre-treatment); assay type: cell-based, human; conditions: 250 nM 6 h pre-treatment, 30 min on ice, rewarmed 37 °C 30 min
Experimental: as §1
Following cell seeding (42 h) the media was replaced with drug (or diluent control) containing complete media and cells were treated for 6 h with 250 nM of podophyllotoxin, compound 8e, 8b or 0.01% DMSO. The plates were then placed on ice and cells were incubated at 4 °C for 30 min to depolymerise the tubulin cytoskeleton, [28], [30]. One set of cover slips for each treatment condition was prepared for tubulin immunofluorescence (see protocol below) and the remaining sets of cover slips were returned to the incubator (37 °C, 5% CO2) for 30 min to allow re-polymerisation of microtubules. Tubulin immunofluorescence was performed after the cells had been rewarmed for 30 min (see below). […]
as §2

[3] = test system: human breast cancer cell line MCF-7; experiment: Oncotest propidium iodide monolayer cell proliferation assay, MCF-7; assay type: cell-based
Experimental: (§3) The anticancer activity of compounds (8a-q) was evaluated using the Oncotest monolayer assay in the human prostate cancer cell line 22Rv1 and the human breast cancer cell line MCF-7, as an outsourced service. […] Antitumour activity was assessed after four days of treatment with the compounds using a propidium iodide based monolayer assay. Potency is expressed as absolute IC50 values, calculated by non-linear regression analysis following testing in triplicate. The seventeen inhibitors were tested at 10 concentrations in half-log increments up to 100 μM in triplicate.
(§4) A modified propidium iodide (PI) based monolayer assay was used to assess the anti-cancer activity of the compounds. Briefly, cells were harvested from exponential phase cultures, counted and plated in 96-well flat-bottom microtiter plates at a cell density of 8.000–12.000 cells/well. After a 24 h recovery period to allow the cells to resume exponential growth, 10 μl of culture medium (six control wells/plate) or culture medium with test compound were added. The compounds were applied in half-log increments at 10 concentrations in triplicate. After a total treatment period of 96 h, cells were washed with 200 μl PBS to remove dead cells and debris. Then, 200 μl of a solution containing 7 μg/mL propidium iodide (PI) was added. After an incubation period of 1–2 h at room temperature, fluorescence (FU) was measured using the EnSpire Multimode Plate Reader (excitation λ = 530 nm, emission λ = 620 nm) to quantify the amount of attached viable cells. IC50 values were calculated by 4-parameter non-linear curve fit using Oncotest Warehouse Software. For calculation of mean IC50 values the geometric mean was used.

[4] = test system: microtubules in MCF-7 cells; experiment: Microtubule immunofluorescence assay (α-tubulin, confocal microscopy); assay type: cell-based, human; conditions: 250 nM, 6 h; for effect on tubulin cytoskeleton: MCF-7, interphase cells for 8e and 8b, all cells for podophyllotoxin; for induced defects in dividing cells: MCF-7 dividing cells
Experimental: In order to investigate the microtubule-destabilising ability of these analogues, experiments were conducted to determine their effects on the subcellular organisation of microtubules in vitro [27]. […] The nuclei of control interphase cells were relatively monomorphic. […] Analogue treated cells in interphase featured shorter microtubule filaments and slightly more disordered microtubule networks than control cells.
Following cell seeding (42 h) the media was replaced with fresh complete media containing 250 nM of podophyllotoxin, compound 8e and 8b or 0.01% DMSO. The cells were treated for 6 h with drug or diluent control then subjected to downstream immunofluorescence analysis (see tubulin immunofluorescence protocol).
The media was aspirated and the cells were washed once in ice-cold PBS before being fixed in 100% methanol at −20 °C for 10 min. The cells were then washed thrice in PBS and stored overnight at 4 °C. The following day cells were incubated in 150 μL of blocking solution (2% FBS [v/v], 2% BSA [w/v] in PBS pH 7.4) for 30 min. Blocking was followed by 1 h incubation with 100 μl of mouse anti-α tubulin antibody diluted 1:2000 in blocking solution. Cells were then washed 3 × 5min in PBS before being incubated with Alexa488 labelled, anti-mouse secondary antibody (1:400) and Hoechst 33342 (1 μg/ml) for 30 min. The cells were washed a final 3 × 5 min in PBS before coverslips were dipped once into PBS, once into dH2O and mounted onto glass slides with 12 μL of mounting medium (Dako oil). Three independent experiments were carried out in duplicate.
Confocal fluorescence microscopy analysis was conducted on a Leica SP5 inverted confocal laser scanning microscope. The microscope was equipped with a 63x oil-immersion objective and the 405 and 488 nm lasers were used. Gain and offset settings were optimised for each fluorescent channel within an experiment. Images were recorded using the sequential scanning mode to prevent fluorescence channel crosstalk/bleed-through. Images were scanned at 100 Hz with a line average of three to reduce noise.

[5] = test system: MCF-7 and 22Rv1; experiment: Oncotest monolayer assay, results stated over both cell lines; assay type: cell-based, human; conditions: for concentration-effect curve: cell viability, ten concentrations up to 100 μM, Fig. 3; for IC50: Homo sapiens
Experimental: as §3, §4

[6] = test system: human prostate cancer cell line 22Rv1; experiment: Oncotest propidium iodide monolayer cell proliferation assay, 22Rv1; assay type: cell-based; conditions: mean absolute IC50, 96 h treatment, propidium iodide endpoint, triplicate
Experimental: as §3, §4

[7] = parameters: method as in PMID 3290912; conditions: cis isomer versus podophyllotoxin; cited from earlier work
[8] = Homo sapiens, MCF7, 96 h, mean absolute IC50, 96 h treatment, propidium iodide endpoint, triplicate, read-out: MCF-7 IC50

| IC50 ([6]; Homo sapiens, 22Rv1, 96 h) | IC50 [3, 8] | SMILES | repolymerisation of tubulin following cold depolymerisation [1] | repolymerisation of tubulin following cold depolymerisation [2] | effect on tubulin cytoskeleton [4] | concentration-effect curve [5] | induced defects in dividing cells [4] | further results |
| --- | --- | --- | --- | --- | --- | --- | --- | --- |
| 110 nM | 0.21 µM | O=C1OC[C@]2(O)Nc3c(c4cccnc4c4ncccc34)[C@@H](c3ccccc3C(F)(F)F)[C@@H]12 (mixture of isomers) [Compound 8e, (9aS, 12aR, 13R) and (9aR, 12aS, 13S) 9a-hydroxy-13-(2-(trifluoromethyl)phenyl)-9a,10,12a,13-tetrahydrofuro[3,4-b]pyrido[3,2-f][1,10]phenanthrolin-12(9H)-one] | the microtubule cytoskeleton was able to reform with negligible defects | the microtubule cytoskeleton was still able to reform but mitotic defects and shorter filaments | more subtle changes in the tubulin filaments and their organisation | sigmoidal concentration-effect curves with low bottom plateaus indicating total cell kill at higher test concentration | aberrations of spindle morphology and polarity, nuclear atypia (pleomorphism, pyknosis) and uncongressed/misaligned chromosomes | IC50 [6]: 107 nM; IC50 ([3]; mean absolute IC50, 96 h treatment, propidium iodide endpoint, triplicate, read-out: MCF-7 IC50): 0.209 µM |
| 165 nM | 0.288 µM | O=C1OC[C@]2(O)Nc3c(c4cccnc4c4ncccc34)[C@@H](c3ccccc3OC(F)(F)F)[C@H]12 (mixture of isomers) [Compound 8b, (9aS, 12aS, 13S) and (9aR, 12aR, 13R) 9a-hydroxy-13-(2-(trifluoromethoxy)phenyl)-9a,10,12a,13-tetrahydrofuro[3,4-b]pyrido[3,2-f][1,10]phenanthrolin-12(9H)-one] | the microtubule cytoskeleton was able to reform with negligible defects | the microtubule cytoskeleton was still able to reform but mitotic defects and shorter filaments | more subtle changes in the tubulin filaments and their organisation | sigmoidal concentration-effect curves with low bottom plateaus indicating total cell kill at higher test concentration | aberrations of spindle morphology and polarity, nuclear atypia (pleomorphism, pyknosis) and uncongressed/misaligned chromosomes | – |
| 322 nM | 0.396 µM | COc1cc(OC(F)(F)F)ccc1[C@@H]1c2c(c3cccnc3c3ncccc23)N[C@@]2(O)COC(=O)[C@@H]12 (mixture of isomers) [Compound 8o, (9aS, 12aS, 13S) and (9aR, 12aR, 13R) 9a-hydroxy-13-(2-methoxy-4-(trifluoromethoxy)phenyl)-9a,10,12a,13-tetrahydrofuro[3,4-b]pyrido[3,2-f][1,10]phenanthrolin-12(9H)-one] | – | – | – | – | – | IC50 ([5]; geometric mean over MCF-7 and 22Rv1, read-out: Mean IC50 values): < 500 nM; antiproliferative activity (in words) ([5]; MCF-7 and 22Rv1): more active than etoposide in both cell lines |

More lines, now with the values behind:

| SMILES | IC50 ([6]; Homo sapiens, 22Rv1, 96 h) | IC50 [3, 8] | repolymerisation of tubulin following cold depolymerisation [1] | repolymerisation of tubulin following cold depolymerisation [2] | effect on tubulin cytoskeleton [4] | concentration-effect curve [5] | induced defects in dividing cells [4] | further results |
| --- | --- | --- | --- | --- | --- | --- | --- | --- |
| COc1cc([C@@H]2c3cc4c(cc3[C@H](O)[C@H]3COC(=O)[C@H]23)OCO4)cc(OC)c1OC [Podophyllotoxin] | – | – | significantly impaired the repolymerisation of tubulin following cold depolymerisation | significantly impaired the repolymerisation of tubulin following cold depolymerisation | dramatic disruption of the tubulin cytoskeleton | – | – | IC50 ([3]; Homo sapiens, MCF7, 96 h, read-out: MCF-7 IC50 (μM)): 0.23 µM |
| COc1cc([C@@H]2c3cc4c(cc3[C@H](O)[C@H]3COC(=O)[C@@H]23)OCO4)cc(OC)c1OC [picropodophyllin] | – | – | – | – | – | – | – | less active than podophyllotoxin [7]: 100 fold |
| COc1cc([C@@H]2c3cc4c(cc3[C@@H](O[C@@H]3O[C@@H]5CO[C@@H](c6cccs6)O[C@H]5[C@H](O)[C@H]3O)[C@H]3COC(=O)[C@H]23)OCO4)cc(OC)c1O [Teniposide, reference compound] | 82 nM | 0.125 µM | – | – | – | – | – | IC50 ([5]; range or bound over both cell lines MCF-7 and 22Rv1, read-out: IC50 values in the range): 80 to 130 nM |
